Tests used:
[1] = test system: normal NK cells expanded with K562-aAPC; test: percent inhibition of viability; higher = more inhibition; details: 72 h, IL-2 2.5 ng/mL
Description: (§1)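 Drug sensitivity and resistance testing on K562-aAPC-expanded normal NK cells: 5 concentrations (10-fold steps over a 10,000-fold range), 72 h at 37 °C, viability by CellTiter-Glo normalised to DMSO and benzethonium chloride controls; DSS from the fitted curve.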

[2] = test system: DERL-7 (IL-2 2.5 ng/mL); test: as above; details: 72 h
[3] = test system: IMC-1 (IL-2 20 ng/mL); test: as above; details: 72 h
[4] = test system: KAI3 (IL-2 2.5 ng/mL); test: as above; details: 72 h
[5] = test system: KHYG-1 (IL-2 2.5 ng/mL); test: as above; details: 72 h
[6] = test system: NK-92 (IL-2 2.5 ng/mL); test: as above; details: 72 h
[7] = test system: NK-YS (IL-2 2.5 ng/mL); test: as above; details: 72 h
[8] = test system: NKL (IL-2 2.5 ng/mL); test: as above; details: 72 h
[9] = test system: SNK-6 (IL-2 2.5 ng/mL); test: as above; details: 72 h
[10] = test system: YT (IL-2 2.5 ng/mL); test: as above; details: 72 h
[11] = test system: normal primary NK cells, pool 1 (3 donors) (IL-2 2.5 ng/mL); test: as above; details: 72 h
[12] = test system: normal primary NK cells, pool 1 (3 donors), resting (IL-2 0 ng/mL); test: as above; details: 72 h
[13] = test system: normal primary NK cells, pool 2 (3 donors) (IL-2 2.5 ng/mL); test: as above; details: 72 h
[14] = test system: normal primary NK cells, pool 3 (3 donors) (IL-2 2.5 ng/mL); test: as above; details: 72 h
[15] = test system: normal NK cells expanded with K562-aAPC; test: drug sensitivity score (DSS) (DSS units); higher = more sensitive; extreme values may be limits of the assay; details: 72 h; IL-2 2.5 ng/mL
Description: as §1

[16] = test system: DERL-7 (IL-2 2.5 ng/mL); test: as above; details: 72 h
[17] = test system: IMC-1 (IL-2 20 ng/mL); test: as above; details: 72 h
[18] = test system: KAI3 (IL-2 2.5 ng/mL); test: as above; details: 72 h
[19] = test system: KHYG-1 (IL-2 2.5 ng/mL); test: as above; details: 72 h
[20] = test system: NK-92 (IL-2 2.5 ng/mL); test: as above; details: 72 h
[21] = test system: NK-YS (IL-2 2.5 ng/mL); test: as above; details: 72 h
[22] = test system: NKL (IL-2 2.5 ng/mL); test: as above; details: 72 h
[23] = test system: SNK-6 (IL-2 2.5 ng/mL); test: as above; details: 72 h
[24] = test system: YT (IL-2 2.5 ng/mL); test: as above; details: 72 h
[25] = test system: normal primary NK cells, pool 1 (3 donors) (IL-2 2.5 ng/mL); test: as above; details: 72 h
[26] = test system: normal primary NK cells, pool 1 (3 donors), resting (IL-2 0 ng/mL); test: as above; details: 72 h
[27] = test system: normal primary NK cells, pool 2 (3 donors) (IL-2 2.5 ng/mL); test: as above; details: 72 h
[28] = test system: normal primary NK cells, pool 3 (3 donors) (IL-2 2.5 ng/mL); test: as above; details: 72 h

CC(C)(C)Cn1c(N)nc2ccc(-c3[nH]c(C(C)(C)C)nc3-c3ccc(F)cc3)nc21 [Ralimetinib] (max concentration tested 10000 nM)
percent inhibition of viability [%]
Details | 1 nM | 10 nM | 100 nM | 1000 nM | 10000 nM
[1] | -3.87 | -2.62 | -1.53 | -3.78 | 1.72
[2] | -0.84 | 3.26 | 3.67 | 8.89 | 48.2
[3] | -2.69 | -3.53 | -8.24 | -9.02 | -12.2
[4] | 5.37 | 12.8 | 12.9 | 10.1 | 11
[5] | -1.88 | -3.23 | -1.97 | 1.06 | 46.9
[6] | -0.07 | 2.05 | 1.85 | 13.3 | 86.5
[7] | -3.85 | 0.83 | 1.68 | 3.41 | 13.1
[8] | 0.97 | 4.97 | 7.92 | 17.1 | 70
[9] | -2.2 | -16 | -17.2 | -21.4 | 9.93
[10] | 1.29 | 1.91 | 4.09 | 6.38 | 55.6
[11] | -10.9 | -14.6 | 6.91 | -4.19 | 51.1
[12] | -14.8 | -29.1 | -0.22 | -17.7 | 77
[13] | -10.8 | -12.4 | -9.11 | -7.41 | 31.4
[14] | -7.2 | -12.3 | -15.7 | -6.16 | 11.3

Details | drug sensitivity score
[15] | 0
[16] | 4
[17] | 0
[18] | 0
[19] | 2.57
[20] | 7.03
[21] | 0.28
[22] | 6.44
[23] | 0
[24] | 4.06
[25] | 2.38
[26] | 3.35
[27] | 1.04
[28] | 0
